From patent US9781930B2, “3′-substituted-abscisic acid derivatives” (Valent BioSciences Corporation, priority 2014, dated 2017)

Key:
Format in all cases: in vivo
[1] = system: Arabidopsis thaliana seed; assay: Seed germination assay for testing Examples 29-46
Experimental: (§1) Seed Germination Assay for Testing Examples 29-46 To determine the germination inhibition potency of the (±)-ABA derivatives, germination assays were performed with the model plant Arabidopsis thaliana. Arabidopsis seed was sterilized by soaking in 70% ethanol solution for 5 minutes, followed by 5% sodium hypochlorite solution for 10 minutes. The seeds were then washed three times with sterile water. The test compounds were tested in germination assay at five concentrations (0.16, 0.64, 2.5, 10, and 40 μM) with (S)-ABA (0.16, 0.64 and 2.5 μM) as a control in 6-well plates. DMSO stock solutions of (S)-ABA and the derivatives at 1,000 fold of the test concentrations were prepared. The stock solutions (5 μL) of (S)-ABA and the derivatives were added to the wells in the assay plate with 0.8% agar solutions of ½ Murashige and Skoog media. Sixteen sterile seeds were placed on the solid agar medium at an appropriate spacing. The assay plates were sealed with surgical tape and wrapped in aluminum foil, and the seeds were vernalized at 4° C. for 2 days. The assay plates were incubated in a growth chamber at 22.5° C. under daily light cycles of 16 hours (30 μmol/m^2·sec) for 4 days after the vernalization. The germination inhibition potency of the derivatives was scored and compared with that of (S)-ABA. The results are summarized in Table 2 “Table 2: Arabidopsis seed germination inhibition activity of (±)-ABA derivatives.”

[2] = system: Arabidopsis thaliana seed; assay: Seed germination assay for testing Examples 29-46; parameters: key: ++++: The 3′-substituted-derivatives were scored by potency relative to ABA.; (S)-ABA potency = +++.; ++: The 3′-substituted-derivatives were scored by potency relative to ABA.; +: The 3′-substituted-derivatives were scored by potency relative to ABA.; −− = no effect; settings: 0.16-40 μM in 6-well plates, 4 days after vernalization, compared with (S)-ABA
Experimental: as §1

[3] = system: Arabidopsis thaliana seed; assay: Seed germination inhibition assay for testing Examples 1-28 and 47-50; parameters: key to Arabidopsis seed germination inhibition potency: + + + +: The other derivatives were scored by potency relative to S-ABA.; (S)-ABA potency = + + +.; + +: The other derivatives were scored by potency relative to S-ABA.; ++: The other derivatives were scored by potency relative to S-ABA.; +: The other derivatives were scored by potency relative to S-ABA.; −− = no effect; settings: 0.01-10.0 ppm in 96-well plates, scored on day 7, relative to (S)-ABA
Experimental: Seed Germination Inhibition Assay for Testing Examples 1-28 and 47-50 To determine the germination inhibition potency of the (S)-ABA derivatives, germination assays were performed with the model plant Arabidopsis thaliana. Arabidopsis seed was sterilized by shaking for five minutes in 200-proof ethanol, and followed by shaking for five minutes in a 10% bleach solution. The seeds were then washed five times in sterile, distilled, de-ionized water and suspended in 0.1% phytoagar. The tubes containing the seeds were wrapped in aluminum foil and stratified at 4° C. for two days. All compounds were tested at eight concentrations of 0 (DMSO control), 0.01, 0.03, 0.1, 0.3, 1.0, 3.0, and 10.0 ppm in 96-well plates. Each plate contained eight replicates of each concentration of the test compound and eight replicates of (S)-ABA at 0.1 ppm as the positive control. As an additional set of controls, each run of the assay also contained one plate dosed with (S)-ABA covering a range of concentrations up to 10 ppm. For each compound, 10× stock solutions corresponding to each of the tested concentrations were prepared in distilled and de-ionized water containing 5% DMSO. The stock test solution (10 μL) was added to each well according to the scheme described above, and 90 μL of ½× Murashige and Skoog media containing 1.2% Bactoagar was then added to each well (final DMSO concentration was 0.5%). When the media solidified, ten to fifteen sterile stratified Arabidopsis seeds were distributed into each well using a repeat pipettor. The plates were sealed with surgical tape and placed in a growth chamber running diurnal cycles of 12 hours of light at 24° C. and 12 hours of darkness at 19° C. The plates were scanned on days 3 through 7, and scored on day 7. The 3′-substituted-(S)-ABA derivatives were scored on ability to inhibit germination relative to the potency of (S)-ABA. The results are summarized below in “Table 1: Arabidopsis seed germination inhibition activity of (S)-ABA derivatives.”

Row | Structure (SMILES) | germination inhibition activity compared to (S)-ABA (in words) [1] | Arabidopsis seed germination inhibition potency [2] | Arabidopsis seed germination inhibition potency [3]
1 | CC1=C(C2CC2)C(=O)CC(C)(C)C1(O)/C=C/C(C)=C\C(=O)O (racemic) [Example 29, (2Z,4E)-5-(3-cyclopropyl-1-hydroxy-2,6,6-trimethyl-4-oxocyclohex-2-en-1-yl)-3-methylpenta-2,4-dienoic acid] | the same level of potency as (S)-ABA | +++ | 
2 | CCCC1=C(C)C(O)(/C=C/C(C)=C\C(=O)O)C(C)(C)CC1=O (racemic) [Example 30, (2Z,4E)-5-(1-hydroxy-2,6,6-trimethyl-4-oxo-3-propylcyclohex-2-en-1-yl)-3-methylpenta-2,4-dienoic acid] | the same level of potency as (S)-ABA | +++ | 
3 | CC1=C(C(C)C)C(=O)CC(C)(C)C1(O)/C=C/C(C)=C\C(=O)O (racemic) [Example 31, (2Z,4E)-5-(1-hydroxy-3-isopropyl-2,6,6-trimethyl-4-oxocyclohex-2-en-1-yl)-3-methylpenta-2,4-dienoic acid] |  | + | 
4 | CCC1=C(C)C(O)(/C=C/C(C)=C\C(=O)O)C(C)(C)CC1=O (racemic) [Example 32, (2Z,4E)-5-(3-ethyl-1-hydroxy-2,6,6-trimethyl-4-oxocyclohex-2-en-1-yl)-3-methylpenta-2,4-dienoic acid] | the same level of potency as (S)-ABA | +++ | 
5 | CCCCC1=C(C)C(O)(/C=C/C(C)=C\C(=O)O)C(C)(C)CC1=O (racemic) [Example 33, (2Z,4E)-5-(3-butyl-1-hydroxy-2,6,6-trimethyl-4-oxocyclohex-2-en-1-yl)-3-methylpenta-2,4-dienoic acid] |  | + | 
6 | CC1=C(C(F)F)C(=O)CC(C)(C)C1(O)/C=C/C(C)=C\C(=O)O (racemic) [Example 38, (2Z,4E)-5-(3-(difluoromethyl)-1-hydroxy-2,6,6-trimethyl-4-oxocyclohex-2-en-1-yl)-3-methylpenta-2,4-dienoic acid] | the same level of potency as (S)-ABA | +++ | 
7 | CC1=C(C(C)(F)F)C(=O)CC(C)(C)C1(O)/C=C/C(C)=C\C(=O)O (racemic) [Example 39, (2Z,4E)-5-(3-(1,1-difluoroethyl)-1-hydroxy-2,6,6-trimethyl-4-oxocyclohex-2-en-1-yl)-3-methylpenta-2,4-dienoic acid] | more active than (S)-ABA | ++++ | 
8 | CC1=C(C(C)F)C(=O)CC(C)(C)C1(O)/C=C/C(C)=C\C(=O)O (racemic) [Example 40, (2Z,4E)-5-(3-(1-fluoroethyl)-1-hydroxy-2,6,6-trimethyl-4-oxocyclohex-2-en-1-yl)-3-methylpenta-2,4-dienoic acid] | more active than (S)-ABA | ++++ | 
9 | CC1=C(C2CCC2)C(=O)CC(C)(C)C1(O)/C=C/C(C)=C\C(=O)O (racemic) [Example 41, (2Z,4E)-5-(3-cyclobutyl-1-hydroxy-2,6,6-trimethyl-4-oxocyclohex-2-en-1-yl)-3-methylpenta-2,4-dienoic acid] |  | ++ | 
10 | CC1=C(C2CC2F)C(=O)CC(C)(C)C1(O)/C=C/C(C)=C\C(=O)O (racemic) [Example 43, (2Z,4E)-5-(3-(2-fluorocyclopropyl)-1-hydroxy-2,6,6-trimethyl-4-oxocyclohex-2-en-1-yl)-3-methylpenta-2,4-dienoic acid] | the same level of potency as (S)-ABA | +++ | 
11 | CC1=C(CC(F)(F)F)C(=O)CC(C)(C)C1(O)/C=C/C(C)=C\C(=O)O (racemic) [Example 44, (2Z,4E)-5-(1-hydroxy-2,6,6-trimethyl-4-oxo-3-(2,2,2-trifluoroethyl)cyclohex-2-en-1-yl)-3-methylpenta-2,4-dienoic acid] |  | ++ | 
12 | CC1=C(C(F)(F)F)C(=O)CC(C)(C)C1(O)/C=C/C(C)=C\C(=O)O (racemic) [Example 45, (2Z,4E)-5-(1-hydroxy-2,6,6-trimethyl-4-oxo-3-(trifluoromethyl)cyclohex-2-en-1-yl)-3-methylpenta-2,4-dienoic acid] | more active than (S)-ABA | ++++ | 
13 | CC1=CC(=O)CC(C)(C)[C@@]1(O)/C=C/C(C)=C/C(=O)O [(S)-ABA, (S)-abscisic acid, reference compound] |  | +++ | + + +
14 | COc1cc([N+](=O)[O-])ccc1CC1=C(C)[C@](O)(/C=C/C(C)=C\C(=O)O)C(C)(C)CC1=O [Example 27, (2Z,4E)-5-((S)-1-hydroxy-3-(2-methoxy-4-nitrobenzyl)-2,6,6-trimethyl-4-oxocyclohex-2-en-1-yl)-3-methylpenta-2,4-dienoic acid] |  |  | −−
15 | CC1=C(Cc2nc3ccccc3s2)C(=O)CC(C)(C)[C@@]1(O)/C=C/C(C)=C\C(=O)O [Example 28, (2Z,4E)-5-((S)-3-(benzo[d]thiazol-2-ylmethyl)-1-hydroxy-2,6,6-trimethyl-4-oxocyclohex-2-en-1-yl)-3-methylpenta-2,4-dienoic acid] |  |  | −−
16 | CC#CCC1=C(C)[C@](O)(/C=C/C(C)=C\C(=O)O)C(C)(C)CC1=O [Example 47, (2Z,4E)-5-((S)-3-(but-2-yn-1-yl)-1-hydroxy-2,6,6-trimethyl-4-oxocyclohex-2-en-1-yl)-3-methylpenta-2,4-dienoic acid] |  |  | ++
17 | CCC#CCC1=C(C)[C@](O)(/C=C/C(C)=C\C(=O)O)C(C)(C)CC1=O [Example 48, (2Z,4E)-5-((S)-1-hydroxy-2,6,6-trimethyl-4-oxo-3-(pent-2-yn-1-yl)cyclohex-2-en-1-yl)-3-methylpenta-2,4-dienoic acid] |  |  | +
18 | CC1=C(C/C=C/C(=O)O)C(=O)CC(C)(C)[C@@]1(O)/C=C/C(C)=C\C(=O)O [Example 49, (2Z,4E)-5-((S)-3-((E)-3-carboxyallyl)-1-hydroxy-2,6,6-trimethyl-4-oxocyclohex-2-en-1-yl)-3-methylpenta-2,4-dienoic acid] |  |  | −−
19 | CC1=C(C/C=C/c2ccccc2)C(=O)CC(C)(C)[C@@]1(O)/C=C/C(C)=C\C(=O)O [Example 50, (2Z,4E)-5-((S)-3-cinnamyl-1-hydroxy-2,6,6-trimethyl-4-oxocyclohex-2-en-1-yl)-3-methylpenta-2,4-dienoic acid] |  |  | +
